The values below come from patent US10793582B2, “Bicyclic heterocyclic compound” (MITSUBISHI TANABE PHARMA CORPORATION, priority 2015, dated 2020).

In this experiment the target is human recombinant KAT-II (Homo sapiens (Human), UniProt Q8N5Z0). The experiment is described as follows: KAT-II inhibitory test. It counts as biochemical. The conditions noted are these: 3.0 μmol/L kynurenine, 37° C. for 1 hr, kynurenic acid by HPLC. How it is done: The compounds described in the above-mentioned Examples were used for the KAT-II inhibitory test.
Human recombinant KAT-II was prepared as follows.
His tag and maltose binding protein tag were added to the N-terminal of a gene encoding human KAT-II (Genbank accession number: AF481738.1), and the obtained gene was incorporated into pET32 (Merck Nihon Millipore), which is an Escherichia coli expression vector. Human recombinant KAT-II produced by BL21(DE3) Escherichia coli (Merck Nihon Millipore, 69450) transformed using the plasmid was purified using an amylose resin column (New England Biolabs, #800-21 L).
The inhibitory action of the test compound on human recombinant KAT-II was determined by the following method.
To a reaction mixture (45 μL) containing 3.0 μmol/L kynurenine, 10 μmol/L pyridoxal phosphate, 2.0 ng/μL human recombinant KAT-II, and 150 mmol/L tris(hydroxymethyl)aminomethane-acetate buffer (pH 8.0) was added a 10% dimethyl sulfoxide solution (5 μL) of each test compound prepared, and the mixture was reacted at 37° C. for 1 hr. After the reaction, 50% trichloroacetic acid (5 μL) was added to terminate the reaction.
The resultant kynurenic acid was quantified as follows by high performance liquid chromatography. An enzyme reaction mixture was separated by an octadecylsilane reversed-phase column (SC-50DS, Eicom Corporation; mobile phase: 250 mmol/L zinc acetate, 50 mmol/L sodium acetate, and 5.0% acetonitrile (pH 6.2)) incubated at 30° C., and kynurenic acid was quantified using a fluorescence detector (RF-20Axs, Shimadzu Corporation) at excitation wavelength 354 nm, detection wavelength 460 nm. The analytical curve was drawn every time by an external standard method. Each test compound was tested by dual measurement at each concentration. The kynurenic acid level in the presence of a test compound at each concentration was converted into % relative to kynurenic acid resulting from a reaction with an enzyme alone as 100%, and the obtained values were fitted to S-curve to determine IC50.

SMILES strings stand for the structures. Where a name gives a salt, the structure may show the parent alone.

Sequence of human recombinant KAT-II (Q8N5Z0 30-425): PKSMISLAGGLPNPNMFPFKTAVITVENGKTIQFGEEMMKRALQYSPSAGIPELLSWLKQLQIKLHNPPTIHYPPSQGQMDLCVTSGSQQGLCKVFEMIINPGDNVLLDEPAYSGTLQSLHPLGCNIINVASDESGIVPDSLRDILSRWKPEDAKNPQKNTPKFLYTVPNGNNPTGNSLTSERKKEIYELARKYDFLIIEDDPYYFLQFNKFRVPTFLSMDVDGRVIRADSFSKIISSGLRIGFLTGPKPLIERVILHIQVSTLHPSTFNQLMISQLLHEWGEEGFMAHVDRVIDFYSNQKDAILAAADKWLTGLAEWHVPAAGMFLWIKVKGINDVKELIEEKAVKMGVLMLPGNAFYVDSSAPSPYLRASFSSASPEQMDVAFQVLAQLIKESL

With `N#CC1(c2cnc3nc(N4CCC[C@@H]4C(=O)NCc4ccccc4)sc3c2)CCC1` [Example 115], the IC50 – broadly, the point on the concentration scale where inhibition reaches its midpoint – came to 70 nM. Turning to `N#CC1(c2cnc3nc(N4CCC[C@@H]4C(=O)NCc4ccccc4)sc3c2)CCOCC1` [Example 116], the IC50 amounted to 90 nM.

As for `COCC1(c2cnc3nc(N4CCC[C@@H]4C(=O)NCc4ccccc4)sc3c2)CC1` [Example 117], the IC50 came out at 170 nM. The result for `Cc1cc2sc(N3CCC[C@@H]3C(=O)NC3(c4ccccc4)CC3)nc2nc1C` [Example 120] reads 530 nM; that for `O=C(NCc1ccccc1)[C@H]1CCCN1c1nc2ncc(C(F)(F)F)cc2s1` [Example 124], 710 nM.

As to `O=C(NCc1ccccc1)[C@H]1CCCN1c1nc2ncc(C3(O)CCC3)cc2s1` [Example 126], the IC50 was found to be 190 nM. The result for `COC1(c2cnc3nc(N4CCC[C@@H]4C(=O)NCc4ccccc4)sc3c2)CCC1` [Example 127] reads 280 nM; that for `O=C(NCc1ccccc1)[C@H]1CCCN1c1nc2ncc(C3CCOCC3)cc2s1` [Example 129], 72 nM; that for `Cc1cnc2nc(N3CCC[C@@H]3C(=O)NCc3ccccc3)sc2c1` [Example 134], 200 nM. Turning to `Cc1cnc2nc(N3CCC[C@@H]3C(=O)NCc3ccccc3)sc2c1C#N` [Example 136, (R)—N-benzyl-1-(7-cyano-6-methyl[1,3]thiazolo[4,5-b]pyridin-2-yl)pyrrolidine-2-carboxamide], the IC50 was 490 nM. The result for `COCc1ccnc2nc(N3CCC[C@@H]3C(=O)NCc3ccccc3)sc12` [Example 141] reads 320 nM; that for `Cc1nc(-c2cnc3nc(N4CCC[C@@H]4C(=O)N[C@H](C)c4ccccc4)sc3c2)no1` [Example 148, (R)-1-[6-(5-methyl-1,2,4-oxadiazol-3-yl)[1,3]thiazolo[4,5-b]pyridin-2-yl]-N-[(1R)-1-phenylethyl]pyrrolidine-2-carboxamide], 93 nM; that for `Cc1nc(-c2c(C)cnc3nc(N4CCC[C@@H]4C(=O)NCc4ccccc4)sc23)no1` [Example 149], 110 nM. Next, `O=C(NCc1ccccc1)[C@H]1CCCN1c1nc2ncc(OC3COC3)cc2s1` [Example 151]: 270 nM; `COCc1cnc2nc(N3CCC[C@@H]3C(=O)NCc3ccccc3)sc2c1` [Example 159]: 640 nM; `N#Cc1cnc2nc(N3CCC[C@@H]3C(=O)NCc3ccccc3)sc2c1C1CC1` [Example 161]: 81 nM. Next, `O=C(NCc1ccc(F)cc1)[C@H]1CCCN1c1nc2ncc(C3CC3)cc2s1` [Example 162, (R)-1-(6-cyclopropyl[1,3]thiazolo[4,5-b]pyridin-2-yl)-N-(4-fluorobenzyl)pyrrolidine-2-carboxamide]: 300 nM; `COCc1c(F)cnc2nc(N3CCC[C@@H]3C(=O)NCc3ccccc3)sc12` [Example 163, (R)—N-benzyl-1-[6-fluoro-7-(methoxymethyl)[1,3]thiazolo[4,5-b]pyridin-2-yl]pyrrolidine-2-carboxamide]: 910 nM; `CCOc1c(COC)cnc2nc(N3CCC[C@@H]3C(=O)NCc3ccccc3)sc12` [Example 164]: 150 nM. On to `CCc1c(-c2cnn(C)c2)cnc2nc(N3CCC[C@@H]3C(=O)NCc3ccccc3)sc12` [Example 170, (R)—N-benzyl-1-[7-ethyl-6-(1-methyl-1H-pyrazol-4-yl)[1,3]thiazolo[4,5-b]pyridin-2-yl]pyrrolidine-2-carboxamide], for which the IC50 was found to be 34 nM. As for `Cc1nc(C(C)(C)c2cnc3nc(N4CCC[C@@H]4C(=O)NCc4ccccc4)sc3c2)no1` [Example 171, (R)—N-benzyl-1-{6-[2-(5-methyl-1,2,4-oxadiazol-3-yl)propan-2-yl][1,3]thiazolo[4,5-b]pyridin-2-yl}pyrrolidine-2-carboxamide], the IC50 amounted to 390 nM. Next, `O=C(NCc1ccccc1)[C@H]1CCCN1c1nc2ncc(CN3CCCCC3)c(C3CC3)c2s1` [Example 175, (R)—N-benzyl-1-[7-cyclopropyl-6-(piperidin-1-ylmethyl)[1,3]thiazolo[4,5-b]pyridin-2-yl]pyrrolidine-2-carboxamide hydrochloride]: 360 nM. Next, `CN(C)Cc1cnc2nc(N3CCC[C@@H]3C(=O)NCc3ccccc3)sc2c1C1CC1` [Example 176, (R)—N-benzyl-1-{7-cyclopropyl-6-[(dimethylamino)methyl][1,3]thiazolo[4,5-b]pyridin-2-yl}pyrrolidine-2-carboxamide hydrochloride]: 190 nM; `N#Cc1cnc2nc(N3CCC[C@@H]3C(=O)NCc3ccccc3Cl)sc2c1` [Example 178]: 900 nM.

In the case of `Cc1nc(-c2cnc3nc(N4CCC[C@@H]4C(=O)NCc4ccccc4)sc3c2)no1` [Example 183, (R)—N-benzyl-1-[6-(5-methyl-1,2,4-oxadiazol-3-yl)[1,3]thiazolo[4,5-b]pyridin-2-yl]pyrrolidine-2-carboxamide], the IC50 was 640 nM.

As for `CCc1cnc2nc(N3CCC[C@@H]3C(=O)NCc3ccccc3)sc2n1` [Example 187], the IC50 was 140 nM. In the case of `CCc1cnc2nc(N3CCC[C@@H]3C(=O)NCc3ccc(F)cc3)sc2n1` [Example 188], the concentration for half-maximal inhibition (IC50) turned out to be 300 nM.

`O=C(NCc1ccccc1)[C@H]1CCCN1c1nc2ncc(-c3ccccc3)nc2s1` [Example 189]: the IC50 amounted to 210 nM. Next, `CCOc1cnc2nc(N3CCC[C@@H]3C(=O)NCc3ccccc3)sc2n1` [Example 190]: 490 nM; `CN(C)c1cnc2nc(N3CCC[C@@H]3C(=O)NCc3ccccc3)sc2n1` [Example 191]: 210 nM; `O=C(NCc1ccccc1)[C@H]1CCCN1c1nc2ncc(C3CC3)nc2s1` [Example 192, (R)—N-benzyl-1-(6-cyclopropyl[1,3]thiazolo[4,5-b]pyrazin-2-yl)pyrrolidine-2-carboxamide]: 33 nM. The result for `Cc1cnc2nc([C@H]3CCCN3C(=O)Cc3ccccc3)sc2c1` [Example 196, 1-[(R)-2-(6-methyl[1,3]thiazolo[4,5-b]pyridin-2-yl)pyrrolidin-1-yl]-2-phenylethanone] reads 2900 nM; that for `Cc1cnc2nc([C@H]3CCCN3C(=O)Oc3ccccc3)sc2c1` [Example 197, phenyl (R)-2-(6-methyl[1,3]thiazolo[4,5-b]pyridin-2-yl) pyrrolidine-1-carboxylate], 3000 nM. Next, `Cc1cnc2nc([C@H]3CCCN3C(=O)NC3(c4ccccc4)CC3)sc2c1` [Example 203, (R)-2-(6-methyl[1,3]thiazolo[4,5-b]pyridin-2-yl)-N-(1-phenylcyclopropyl)-pyrrolidine-1-carboxamide]: 7400 nM.
